{"source": "patent US10336732B2", "about": "“1-heterocyclyl isochromanyl compounds and analogs for treating CNS disorders” (Sunovion Pharmaceuticals Inc., priority 2015, dated 2019)"}
{"tested_on": "mice", "assay": "Neuropharmacological assay (SmartCube), behavioral signature of compound-treated mice", "format": "in vivo", "settings": "i.p. 15 min before behavioral test, most efficacious dose(s) of 3 doses", "procedure,_shortened": "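Mice received compound i.p. in NMP/PEG/propylene glycol vehicle at 3 doses, 15 min before testing. Video-captured behavior was algorithmically compared with a reference-drug signature database.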"}
{"compound": "N#Cc1ccc2c(c1)[C@@H]([C@H]1CCCN1)OCC2", "note": "[Compound I-42, (S)-1-((R)-pyrrolidin-2-yl)isochroman-7-carbonitrile]", "AD: ADHD (probability that behavioral signature matches class)": "+ (LOQ ≤ + <5%)", "AG: analgesic (probability that behavioral signature matches class)": "++ (5% ≤ ++ <25%)", "AX: anxiolytic (probability that behavioral signature matches class)": "++ (5% ≤ ++ <25%)", "CE: cognitive enhancer (probability that behavioral signature matches class)": "++ (5% ≤ ++ <25%)", "DP: anti-depressant (probability that behavioral signature matches class)": "+++ (25% ≤ +++ <50%)", "HA: hallucinogen (probability that behavioral signature matches class)": "+ (LOQ ≤ + <5%)", "MS: mood stabilizer (probability that behavioral signature matches class)": "+ (LOQ ≤ + <5%)", "PS: anti-psychotic (probability that behavioral signature matches class)": "++ (5% ≤ ++ <25%)", "SD: sedative hypnotic (probability that behavioral signature matches class)": "++ (5% ≤ ++ <25%)", "UN: uncharacterized CNS activity (probability that behavioral signature matches class)": "+ (LOQ ≤ + <5%)", "XG: anxiogenic (probability that behavioral signature matches class)": "+ (LOQ ≤ + <5%)"}
{"compound": "N#Cc1ccc2c(c1)CCO[C@@H]2[C@@H]1CCCN1", "note": "[Compound I-43, (S)-1-((S)-pyrrolidin-2-yl)isochroman-6-carbonitrile]", "AD: ADHD (probability that behavioral signature matches class)": "+ (LOQ ≤ + <5%)", "AG: analgesic (probability that behavioral signature matches class)": "++ (5% ≤ ++ <25%)", "AX: anxiolytic (probability that behavioral signature matches class)": "+++ (25% ≤ +++ <50%)", "CE: cognitive enhancer (probability that behavioral signature matches class)": "++ (5% ≤ ++ <25%)", "DP: anti-depressant (probability that behavioral signature matches class)": "++ (5% ≤ ++ <25%)", "HA: hallucinogen (probability that behavioral signature matches class)": "+ (LOQ ≤ + <5%)", "MS: mood stabilizer (probability that behavioral signature matches class)": "+ (LOQ ≤ + <5%)", "PS: anti-psychotic (probability that behavioral signature matches class)": "++ (5% ≤ ++ <25%)", "SD: sedative hypnotic (probability that behavioral signature matches class)": "+ (LOQ ≤ + <5%)", "UN: uncharacterized CNS activity (probability that behavioral signature matches class)": "+ (LOQ ≤ + <5%)", "XG: anxiogenic (probability that behavioral signature matches class)": "+ (LOQ ≤ + <5%)"}
{"compound": "N#Cc1ccc2c(c1)CCO[C@H]2[C@@H]1CCCN1", "note": "[Compound I-44, (R)-1-((S)-pyrrolidin-2-yl)isochroman-6-carbonitrile]", "AD: ADHD (probability that behavioral signature matches class)": "+ (LOQ ≤ + <5%)", "AG: analgesic (probability that behavioral signature matches class)": "++ (5% ≤ ++ <25%)", "AX: anxiolytic (probability that behavioral signature matches class)": "+++ (25% ≤ +++ <50%)", "CE: cognitive enhancer (probability that behavioral signature matches class)": "++ (5% ≤ ++ <25%)", "DP: anti-depressant (probability that behavioral signature matches class)": "++ (5% ≤ ++ <25%)", "HA: hallucinogen (probability that behavioral signature matches class)": "+ (LOQ ≤ + <5%)", "MS: mood stabilizer (probability that behavioral signature matches class)": "++ (5% ≤ ++ <25%)", "PS: anti-psychotic (probability that behavioral signature matches class)": "+++ (25% ≤ +++ <50%)", "SD: sedative hypnotic (probability that behavioral signature matches class)": "+ (LOQ ≤ + <5%)", "UN: uncharacterized CNS activity (probability that behavioral signature matches class)": "+ (LOQ ≤ + <5%)", "XG: anxiogenic (probability that behavioral signature matches class)": "+ (LOQ ≤ + <5%)"}
{"compound": "N#Cc1ccc2c(c1)CCO[C@H]2[C@H]1CCCN1", "note": "[Compound I-45, (R)-1-((R)-pyrrolidin-2-yl)isochroman-6-carbonitrile]", "AD: ADHD (probability that behavioral signature matches class)": "+ (LOQ ≤ + <5%)", "AG: analgesic (probability that behavioral signature matches class)": "++ (5% ≤ ++ <25%)", "AX: anxiolytic (probability that behavioral signature matches class)": "+++ (25% ≤ +++ <50%)", "CE: cognitive enhancer (probability that behavioral signature matches class)": "+ (LOQ ≤ + <5%)", "DP: anti-depressant (probability that behavioral signature matches class)": "++ (5% ≤ ++ <25%)", "HA: hallucinogen (probability that behavioral signature matches class)": "+ (LOQ ≤ + <5%)", "MS: mood stabilizer (probability that behavioral signature matches class)": "+ (LOQ ≤ + <5%)", "PS: anti-psychotic (probability that behavioral signature matches class)": "+ (LOQ ≤ + <5%)", "SD: sedative hypnotic (probability that behavioral signature matches class)": "+ (LOQ ≤ + <5%)", "UN: uncharacterized CNS activity (probability that behavioral signature matches class)": "+ (LOQ ≤ + <5%)", "XG: anxiogenic (probability that behavioral signature matches class)": "+ (LOQ ≤ + <5%)"}
{"compound": "N#Cc1ccc2c(c1)CCO[C@@H]2[C@H]1CCCN1", "note": "[Compound I-46, (S)-1-((R)-pyrrolidin-2-yl)isochroman-6-carbonitrile]", "AD: ADHD (probability that behavioral signature matches class)": "+ (LOQ ≤ + <5%)", "AG: analgesic (probability that behavioral signature matches class)": "++ (5% ≤ ++ <25%)", "AX: anxiolytic (probability that behavioral signature matches class)": "++ (5% ≤ ++ <25%)", "CE: cognitive enhancer (probability that behavioral signature matches class)": "++ (5% ≤ ++ <25%)", "DP: anti-depressant (probability that behavioral signature matches class)": "++ (5% ≤ ++ <25%)", "HA: hallucinogen (probability that behavioral signature matches class)": "+ (LOQ ≤ + <5%)", "MS: mood stabilizer (probability that behavioral signature matches class)": "+ (LOQ ≤ + <5%)", "PS: anti-psychotic (probability that behavioral signature matches class)": "++++ (50% ≤ ++++)", "SD: sedative hypnotic (probability that behavioral signature matches class)": "++ (5% ≤ ++ <25%)", "UN: uncharacterized CNS activity (probability that behavioral signature matches class)": "+ (LOQ ≤ + <5%)", "XG: anxiogenic (probability that behavioral signature matches class)": "+ (LOQ ≤ + <5%)"}
{"compound": "COc1cccc2c1[C@H]([C@@H]1CCCN1)OCC2", "note": "[Compound I-47, (S)-2-((R)-8-methoxyisochroman-1-yl)pyrrolidine]", "AD: ADHD (probability that behavioral signature matches class)": "+ (LOQ ≤ + <5%)", "AG: analgesic (probability that behavioral signature matches class)": "+ (LOQ ≤ + <5%)", "AX: anxiolytic (probability that behavioral signature matches class)": "++ (5% ≤ ++ <25%)", "CE: cognitive enhancer (probability that behavioral signature matches class)": "+ (LOQ ≤ + <5%)", "DP: anti-depressant (probability that behavioral signature matches class)": "+ (LOQ ≤ + <5%)", "HA: hallucinogen (probability that behavioral signature matches class)": "+ (LOQ ≤ + <5%)", "MS: mood stabilizer (probability that behavioral signature matches class)": "+ (LOQ ≤ + <5%)", "PS: anti-psychotic (probability that behavioral signature matches class)": "+ (LOQ ≤ + <5%)", "SD: sedative hypnotic (probability that behavioral signature matches class)": "+ (LOQ ≤ + <5%)", "UN: uncharacterized CNS activity (probability that behavioral signature matches class)": "+ (LOQ ≤ + <5%)", "XG: anxiogenic (probability that behavioral signature matches class)": "+ (LOQ ≤ + <5%)"}
{"compound": "COc1cccc2c1[C@@H]([C@@H]1CCCN1)OCC2", "note": "[Compound I-48, (S)-2-((S)-8-methoxyisochroman-1-yl)pyrrolidine]", "AD: ADHD (probability that behavioral signature matches class)": "+ (LOQ ≤ + <5%)", "AG: analgesic (probability that behavioral signature matches class)": "+++ (25% ≤ +++ <50%)", "AX: anxiolytic (probability that behavioral signature matches class)": "++ (5% ≤ ++ <25%)", "CE: cognitive enhancer (probability that behavioral signature matches class)": "++ (5% ≤ ++ <25%)", "DP: anti-depressant (probability that behavioral signature matches class)": "++ (5% ≤ ++ <25%)", "HA: hallucinogen (probability that behavioral signature matches class)": "+ (LOQ ≤ + <5%)", "MS: mood stabilizer (probability that behavioral signature matches class)": "+ (LOQ ≤ + <5%)", "PS: anti-psychotic (probability that behavioral signature matches class)": "++ (5% ≤ ++ <25%)", "SD: sedative hypnotic (probability that behavioral signature matches class)": "+ (LOQ ≤ + <5%)", "UN: uncharacterized CNS activity (probability that behavioral signature matches class)": "+ (LOQ ≤ + <5%)", "XG: anxiogenic (probability that behavioral signature matches class)": "+ (LOQ ≤ + <5%)"}
{"compound": "COc1cccc2c1[C@H]([C@H]1CCCN1)OCC2", "note": "[Compound I-49, (R)-2-((R)-8-methoxyisochroman-1-yl)pyrrolidine]", "AD: ADHD (probability that behavioral signature matches class)": "+ (LOQ ≤ + <5%)", "AG: analgesic (probability that behavioral signature matches class)": "++ (5% ≤ ++ <25%)", "AX: anxiolytic (probability that behavioral signature matches class)": "++ (5% ≤ ++ <25%)", "CE: cognitive enhancer (probability that behavioral signature matches class)": "++ (5% ≤ ++ <25%)", "DP: anti-depressant (probability that behavioral signature matches class)": "++ (5% ≤ ++ <25%)", "HA: hallucinogen (probability that behavioral signature matches class)": "+ (LOQ ≤ + <5%)", "MS: mood stabilizer (probability that behavioral signature matches class)": "++ (5% ≤ ++ <25%)", "PS: anti-psychotic (probability that behavioral signature matches class)": "++ (5% ≤ ++ <25%)", "SD: sedative hypnotic (probability that behavioral signature matches class)": "++ (5% ≤ ++ <25%)", "UN: uncharacterized CNS activity (probability that behavioral signature matches class)": "++ (5% ≤ ++ <25%)", "XG: anxiogenic (probability that behavioral signature matches class)": "+ (LOQ ≤ + <5%)"}
{"compound": "COc1cccc2c1[C@@H]([C@H]1CCCN1)OCC2", "note": "[Compound I-50, (R)-2-((S)-8-methoxyisochroman-1-yl)pyrrolidine]", "AD: ADHD (probability that behavioral signature matches class)": "+ (LOQ ≤ + <5%)", "AG: analgesic (probability that behavioral signature matches class)": "++ (5% ≤ ++ <25%)", "AX: anxiolytic (probability that behavioral signature matches class)": "+++ (25% ≤ +++ <50%)", "CE: cognitive enhancer (probability that behavioral signature matches class)": "++ (5% ≤ ++ <25%)", "DP: anti-depressant (probability that behavioral signature matches class)": "++ (5% ≤ ++ <25%)", "HA: hallucinogen (probability that behavioral signature matches class)": "+ (LOQ ≤ + <5%)", "MS: mood stabilizer (probability that behavioral signature matches class)": "+ (LOQ ≤ + <5%)", "PS: anti-psychotic (probability that behavioral signature matches class)": "++ (5% ≤ ++ <25%)", "SD: sedative hypnotic (probability that behavioral signature matches class)": "+ (LOQ ≤ + <5%)", "UN: uncharacterized CNS activity (probability that behavioral signature matches class)": "+++ (25% ≤ +++ <50%)", "XG: anxiogenic (probability that behavioral signature matches class)": "+ (LOQ ≤ + <5%)"}
